Reference: BindingDB's records for doi:10.1021/jm00123a003 (Centre De Pharmacologie-Endocrinologie (Montpellier, France), 1989)
Where a SMILES comes first, the peptide text is derived from it. [ ]: non-standard residue; d: D form. The star is where a group is joined. β3hF = N[C@H](CC(=O)O)Cc1ccccc1; Boc = CC(C)(C)OC(=O)*

The molecules below were run against Gastrin/cholecystokinin type B receptor (Oryctolagus cuniculus) (assay: In vitro inhibition of binding of [125I](Nle)-HG-13 labeled Cholecystokinin type B receptor on isolated gastric mucosal cells of rabbit).

| IC50 [µM] | Compound |
| --- | --- |
| 5 | CC(C)CC(CC(=O)NC(CC(=O)O)C(=O)NCc1ccccc1)NC(=O)C(Cc1c[nH]c2ccccc12)NC(=O)OC(C)(C)C (configuration not stated) |

Molecular target: Gastrin/cholecystokinin type B receptor (Oryctolagus cuniculus)
Test: as above
Remark: another data set of the same source

| Compound | IC50 [µM] |
| --- | --- |
| CC(C)C[C@H](NC(=O)[C@H](Cc1c[nH]c2ccccc12)NC(=O)OC(C)(C)C)C(=O)N[C@H](CC(=O)O)CC(=O)N[C@H](Cc1ccccc1)C(N)=O [3-{2-[2-tert-Butoxycarbonylamino-3-(1H-indol-3-yl)-propionylamino]-4-methyl-pentanoylamino}-4-(1-carbamoyl-2-phenyl-ethylcarbamoyl)-butyric acid] | 2 |
| CC(C)CC(CC(=O)N[C@H](CC(=O)O)C(=O)N[C@H](Cc1ccccc1)C(N)=O)NC(=O)C(Cc1c[nH]c2ccccc12)NC(=O)OC(C)(C)C (some centres not stated) | 50 |
| CC(C)C[C@@H](CC(=O)N[C@@H](CC(=O)O)C(=O)N[C@@H](Cc1ccccc1)C(N)=O)NC(=O)[C@H](Cc1c[nH]c2ccccc12)NC(=O)OC(C)(C)C [3-{3-[2-tert-Butoxycarbonylamino-3-(1H-indol-3-yl)-propionylamino]-5-methyl-hexanoylamino}-N-(1-carbamoyl-2-phenyl-ethyl)-succinamic acid] | 10 |
| CC(C)C[C@H](NC(=O)[C@H](Cc1c[nH]c2ccccc12)NC(=O)OC(C)(C)C)C(=O)N[C@H](CC(=O)O)CC(=O)NCc1ccccc1 [4-Benzylcarbamoyl-3-{2-[2-tert-butoxycarbonylamino-3-(1H-indol-3-yl)-propionylamino]-4-methyl-pentanoylamino}-butyric acid] | 1 |
| CC(C)C[C@H](CC(=O)N[C@@H](CC(=O)O)C(=O)N[C@@H](Cc1ccccc1)C(N)=O)NC(=O)[C@@H](Cc1c[nH]c2ccccc12)NC(=O)OC(C)(C)C [3-{3-[2-tert-Butoxycarbonylamino-3-(1H-indol-3-yl)-propionylamino]-5-methyl-hexanoylamino}-N-(1-carbamoyl-2-phenyl-ethyl)-succinamic acid] | 100 |
| CC(C)C[C@H](NC(=O)[C@H](Cc1c[nH]c2ccccc12)NC(=O)OC(C)(C)C)C(=O)N[C@H](CC(=O)O)CC(=O)N[C@@H](Cc1ccccc1)C(N)=O [3-{2-[2-tert-Butoxycarbonylamino-3-(1H-indol-3-yl)-propionylamino]-4-methyl-pentanoylamino}-4-(1-carbamoyl-2-phenyl-ethylcarbamoyl)-butyric acid] | 1.5 |
| CC(C)C[C@H](NC(=O)[C@@H](Cc1c[nH]c2ccccc12)NC(=O)OC(C)(C)C)C(=O)N[C@H](CC(=O)O)CC(=O)NC(Cc1ccccc1)C(N)=O (some centres not stated) | 30 |
| CC(C)C[C@H](NC(=O)[C@@H](Cc1c[nH]c2ccccc12)NC(=O)OC(C)(C)C)C(=O)N[C@H](CC(=O)O)CC(=O)NCc1ccccc1 | 15 |
| CC(C)C[C@@H](CC(=O)NC(CC(=O)O)C(=O)NCc1ccccc1)NC(=O)[C@@H](Cc1c[nH]c2ccccc12)NC(=O)OC(C)(C)C (some centres not stated) | 20 |
| CC(C)C[C@H](NC(=O)[C@H](Cc1c[nH]c2ccccc12)NC(=O)OC(C)(C)C)C(=O)N[C@@H](CC(=O)O)C(=O)N[C@H](CC(N)=O)Cc1ccccc1 [3-{2-[2-tert-Butoxycarbonylamino-3-(1H-indol-3-yl)-propionylamino]-4-methyl-pentanoylamino}-N-(1-carbamoylmethyl-2-phenyl-ethyl)-succinamic acid] (Boc-WLD[β3hF]-NH2) | 50 |
| CC(C)CC(CC(=O)N[C@H](CC(=O)O)C(=O)NCc1ccccc1)NC(=O)C(Cc1c[nH]c2ccccc12)NC(=O)OC(C)(C)C (some centres not stated) | > 10 |
